Assay: recombinant barcode read abundance after kanamycin selection (control-corrected) (log10(CPM+1)); higher = more efficient recombination; sequences stand for … in AGTGCAGAGAAAATCGGCCAGTTTTCTCTGCCTGCAGTCCGCATGCCGT…AGATTTATGCAGCGGACTGCCTTTCTCCCAAAGTGATAAACCGGACAGTATCATGGACCGGTTTTCCCGGTAATCCGTATTTGCAAGGTTGGTTTCACT; site = the 11-nt target
In short: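 Oligos holding a promoter, target, barcode and the J23119-driven first 104 bases of the bridge RNA were Gibson-cloned into a vector that supplied the other 73 bp plus a T7-inducible recombinase. This library was co-electroporated with a donor plasmid into E. coli. Two replicates went on chloramphenicol/ampicillin LB agar (control) and two on chloramphenicol/ampicillin/kanamycin with 0.1 mM IPTG. Recombination efficiency is read from averaged, control-corrected barcode counts per million at recombinant junctions, reported as log10(CPM+1).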
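Further: IS621 recombinase and bridge RNA in Escherichia coli cells.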

Point of comparison: “GAGGGTTCTTGGGTTCTAACCTGTTGCAT (site GAGGGTGCTAG)”, “recombinant barcode read abundance (log10)” value 0.528. Against it:
- GAGCCACCTTGGGTTCTAACCTGTTGCCA (site GAGCAACCTCG) — lower, 0.0457
- GAGCCACCTTGGGTTCTAACCTGTTGCCA (site GAGCCACCTTG) — higher, 1.02
- GAGCGAGCTTGGGTTCTAACCTGTTGCCG (site GAGCGAGCTCA) — lower, 0.199
- GAGCGAGCTTGGGTTCTAACCTGTTGCCG (site GAGCGAGCTCC) — within 0.2 log units, 0.582
- GAGCGAGCTTGGGTTCTAACCTGTTGCCG (site GAGCGAGCTCG) — higher, 1.11
- GAGCGAGCTTGGGTTCTAACCTGTTGCCG (site GAGCGAGCTCT) — lower, 0.308
- GAGCGATCTTGGGTTCTAACCTGTTGCGT (site GAGCGATCTAC) — higher, 1.85
- GAGCGATCTTGGGTTCTAACCTGTTGCGT (site GAGTGAGCTAC) — lower, 0.0311
- GAGCGCTCTTGGGTTCTAACCTGTTGCCT (site GAGCGCTCTAG) — higher, 1.48
- GAGCGCTCTTGGGTTCTAACCTGTTGCCT (site GAGTGCTCTAC) — lower, 0.0357
- GAGCGCTCTTGGGTTCTAACCTGTTGCTG (site GAGCGCTCTAA) — lower, 0.0574
- GAGCGCTCTTGGGTTCTAACCTGTTGCTG (site GAGCGCTCTCA) — higher, 1.05
- GAGCGCTCTTGGGTTCTAACCTGTTGCTG (site GAGCGCTCTGA) — lower, 0.207
- GAGCGCTCTTGGGTTCTAACCTGTTGCTG (site GAGCGCTCTTA) — lower, 0.0132
- GAGCGGACTTGGGTTCTAACCTGTTGCTA (site GAGCGAGCTTA) — lower, 0.0384
- GAGCGGACTTGGGTTCTAACCTGTTGCTA (site GAGCGGACTTA) — higher, 1.83
- GAGCGGCCTTGGGTTCTAACCTGTTGCAG (site ATTTAAGCTAG) — lower, 0.224
- GAGCGGCCTTGGGTTCTAACCTGTTGCAG (site GAGCGGCCTCT) — higher, 1.72
- GAGCTAGCTTGGGTTCTAACCTGTTGCGC (site GAGCTAGCTAC) — lower, 0.109
- GAGCTAGCTTGGGTTCTAACCTGTTGCGC (site GAGCTAGCTGC) — higher, 2.29
- GAGCTGCCTTGGGTTCTAACCTGTTGCCA (site AGCTAATCTAA) — lower, 0.274
- GAGCTGCCTTGGGTTCTAACCTGTTGCCA (site GAGCTGCCTTG) — higher, 1.66
- GAGCTTACTTGGGTTCTAACCTGTTGCCT (site GAGCTTACTAG) — within 0.2 log units, 0.618
- GAGCTTACTTGGGTTCTAACCTGTTGCCT (site GCGCTTACTAG) — lower, 0.0105
- GAGCTTACTTGGGTTCTAACCTGTTGCCT (site GGGCTTACTAG) — lower, 0.299
- GAGCTTACTTGGGTTCTAACCTGTTGCCT (site GTGCTTACTAG) — lower, 0.158
- GAGGAACCTTGGGTTCTAACCTGTTGCCT (site AAGGAACCTAG) — higher, 1.57
- GAGGAACCTTGGGTTCTAACCTGTTGCCT (site CAGGAACCTAG) — higher, 1.28
- GAGGAACCTTGGGTTCTAACCTGTTGCCT (site GAGGAACCTAG) — higher, 2.12
- GAGGAACCTTGGGTTCTAACCTGTTGCCT (site TAGGAACCTAG) — higher, 1.44
- GAGGAAGCTTGGGTTCTAACCTGTTGCCT (site GAGGAAGCTAG) — higher, 1.81
- GAGGAAGCTTGGGTTCTAACCTGTTGCCT (site GCGGAAGCTAG) — within 0.2 log units, 0.545
- GAGGAAGCTTGGGTTCTAACCTGTTGCCT (site GGGGAAGCTAG) — lower, 0.316
- GAGGAAGCTTGGGTTCTAACCTGTTGCCT (site GTGGAAGCTAG) — within 0.2 log units, 0.473
- GAGGACTCTTGGGTTCTAACCTGTTGCCC (site GAGGACTCTAG) — higher, 2
- GAGGACTCTTGGGTTCTAACCTGTTGCCC (site GAGGACTCTCG) — lower, 0.136
- GAGGACTCTTGGGTTCTAACCTGTTGCCC (site GAGGACTCTGG) — higher, 2.39
- GAGGACTCTTGGGTTCTAACCTGTTGCCC (site GAGGACTCTTG) — within 0.2 log units, 0.682
- GAGGAGTCTTGGGTTCTAACCTGTTGCCG (site AGAACACCTAA) — lower, 0.0129
- GAGGAGTCTTGGGTTCTAACCTGTTGCCG (site GAGGAGTCTCG) — higher, 1.3
- GAGGAGTCTTGGGTTCTAACCTGTTGCCT (site GAGAAGTCTAG) — higher, 1.02
- GAGGAGTCTTGGGTTCTAACCTGTTGCCT (site GAGCAGTCTAG) — lower, 0.0568
- GAGGAGTCTTGGGTTCTAACCTGTTGCCT (site GAGGAGTCTAG) — higher, 2.55
- GAGGAGTCTTGGGTTCTAACCTGTTGCCT (site GAGTAGTCTAG) — lower, 0.171
- GAGGATCCTTGGGTTCTAACCTGTTGCCT (site GAGGATCCTAG) — higher, 2.12
- GAGGATCCTTGGGTTCTAACCTGTTGCCT (site GGGGATCCTAG) — within 0.2 log units, 0.457
- GAGGCAACTTGGGTTCTAACCTGTTGCTT (site CACGCAACTAA) — lower, 0
- GAGGCAACTTGGGTTCTAACCTGTTGCTT (site GAGGCAACTAA) — lower, 0.0561
- GAGGCTCCTTGGGTTCTAACCTGTTGCCG (site GAGGCTCCTAG) — lower, 0.113
- GAGGCTCCTTGGGTTCTAACCTGTTGCCG (site GAGGCTCCTCG) — higher, 0.993
- GAGGCTCCTTGGGTTCTAACCTGTTGCCG (site GAGGCTCCTGG) — lower, 0.138
- GAGGCTCCTTGGGTTCTAACCTGTTGCCG (site GAGGCTCCTTG) — lower, 0.238
- GAGGGTACTTGGGTTCTAACCTGTTGCCT (site GAGCATACTAG) — lower, 0.295
- GAGGGTACTTGGGTTCTAACCTGTTGCCT (site GAGGGTACTAG) — higher, 1.76
- GAGGGTTCTTGGGTTCTAACCTGTTGCAT (site GAGGGTTCTAT) — higher, 2.66
- GAGGTAGCTTGGGTTCTAACCTGTTGCCT (site GAGGTAGCTAG) — higher, 1.18
- GAGGTAGCTTGGGTTCTAACCTGTTGCCT (site GATGTATCTAG) — within 0.2 log units, 0.563
- GAGGTGCCTTGGGTTCTAACCTGTTGCAG (site ATAACCTCTAG) — lower, 0.174
- GAGGTGCCTTGGGTTCTAACCTGTTGCAG (site GAGGTGCCTCT) — higher, 1.44
- GAGTAGTCTTGGGTTCTAACCTGTTGCCT (site GAGAAGTCTAG) — lower, 0.0847
- GAGTAGTCTTGGGTTCTAACCTGTTGCCT (site GAGCAGTCTAG) — higher, 1.27
- GAGTAGTCTTGGGTTCTAACCTGTTGCCT (site GAGGAGTCTAG) — lower, 0.00957
- GAGTAGTCTTGGGTTCTAACCTGTTGCCT (site GAGTAGTCTAG) — higher, 2.39
- GAGTCTCCTTGGGTTCTAACCTGTTGCGG (site CTTCGGACTAA) — lower, 0.187
- GAGTCTCCTTGGGTTCTAACCTGTTGCGG (site GAGTCTCCTCC) — lower, 0.316
- GAGTGAGCTTGGGTTCTAACCTGTTGCAT (site GAGAGAGCTAT) — within 0.2 log units, 0.645
- GAGTGAGCTTGGGTTCTAACCTGTTGCAT (site GAGCGAGCTAT) — higher, 1.95
- GAGTGAGCTTGGGTTCTAACCTGTTGCAT (site GAGGGAGCTAT) — higher, 0.986
- GAGTGAGCTTGGGTTCTAACCTGTTGCAT (site GAGTGAGCTAT) — higher, 2.53
- GAGTGAGCTTGGGTTCTAACCTGTTGCGT (site GAGCGATCTAC) — within 0.2 log units, 0.689
- GAGTGAGCTTGGGTTCTAACCTGTTGCGT (site GAGTGAGCTAC) — higher, 3
- GAGTGCTCTTGGGTTCTAACCTGTTGCGT (site GAGCGCTCTAG) — lower, 0.0262
- GAGTGCTCTTGGGTTCTAACCTGTTGCGT (site GAGTGCTCTAC) — higher, 2.29
- GAGTGGCCTTGGGTTCTAACCTGTTGCCT (site GAGTGGCCTAA) — lower, 0.316
- GAGTGGCCTTGGGTTCTAACCTGTTGCCT (site GAGTGGCCTAC) — lower, 0.121
- GAGTGGCCTTGGGTTCTAACCTGTTGCCT (site GAGTGGCCTAG) — within 0.2 log units, 0.346

Reference: the supplement of paper PMC11208160
